Consider four compounds from article PMC11911205 (Frontiers in Pharmacology, 2025).

The subject of series [1] is vandetanib metabolism (N-demethyl vandetanib formation) in rat liver microsomes. In words: Vandetanib metabolism (N-demethyl vandetanib formation) and its inhibition by luteolin in rat liver microsomes. As to conditions: rat, rat liver microsomes, pH 7.4, probe vandetanib at its Km value in RLM.
Procedure: (§1) Considering that RLM or HLM microsome may have different metabolic rates, we conducted experiments on enzyme and incubation time before the start of the experiment. […] A rate-time graph was created to select the most suitable concentration and incubation time within the linear range of variation. […] The drug was dissolved in DMSO.
(§2) The relationship between reaction rate and substrate concentration based on the Michaelis-Menten equation was calculated, and the Km value through nonlinear fitting was determined. […] The relationship between inhibitor concentration and reaction rate was plotted after the reaction rate at different inhibitor concentrations was determined, and then the IC50 value through nonlinear regression analysis was calculated. […] The above mixture was incubated at 37°C for 5 min, after which NADPH was added to start the reaction process for 30 min, and it was finally cooled to −80°C to stop the reaction. 400 μL of acetonitrile and 20 μL of IS working solution (200 ng/mL) were incorporated into the mixture. Following vortexed and centrifugated at 13,000 rpm for 10 min, the supernatant was obtained for UPLC-MS/MS analysis.
(§3) Km, IC50, Lineweaver-Burk plots and mean plasma concentration-time curves were generated using GraphPad Prism 9.5 software. […] SPSS (version 26.0; SPSS Inc., Chicago, IL, United States) was used for data processing, and t-test was employed to determine whether there was a significant difference.
In series [2] the test system is rat liver microsomes (RLM). The description is as above. As to conditions: RLM, Lineweaver-Burk plot.
Procedure: as §1, §2, §3
In series [3] the target is vandetanib metabolism (N-demethyl vandetanib formation) in human liver microsomes (Homo sapiens, UniProt P08684). In words: Vandetanib metabolism (N-demethyl vandetanib formation) and its inhibition by luteolin in human liver microsomes. As to conditions: pH 7.4.
Procedure: as §1, §2, §3
The target of series [4] is human liver microsomes (HLM) (Homo sapiens, UniProt P08684).
Procedure: as §1, §2, §3
The nature of series [5]: Pharmacokinetics of vandetanib and N-demethyl vandetanib in SD rats with or without luteolin (UPLC-MS/MS of plasma). It is filed as in vivo, Sprague-Dawley (SD) rats. As to conditions: for AUC(0-t) / AUC(0-∞) / CLz/F / Cmax / Tmax / t1/2 / AUC(0-inf) / half-life / CL/F: plasma; for CL/F: read-out: CLz/F (converted). The method, then:
Male SD rats weighing 180–220 g were provided by the Laboratory Animal Center of the First Affiliated Hospital of Wenzhou Medical University (Zhejiang, China). They were housed under standard conditions with a temperature of 20°C–26°C, a relative humidity of 55% ± 15%, and a 12-h dark/light cycle. The rats had free access to water and no other drugs were given during the feeding period, and were prohibited from eating for 12 h before the experiment. The experimental procedures and protocols were in accordance with animal ethics standards and approved by the Institutional Animal Care and Use Committee of the First Affiliated Hospital of Wenzhou Medical University (Zhejiang, China).
Therefore, we adopted the same dosages to ensure the comparability and validity of the experimental results. 0.3 mL tail vein blood was collected at 0.5, 1, 1.5, 2, 3, 4, 6, 8, 12, 24, 48 and 80 h post-vandetanib administration. The blood samples were centrifuged at 4°C at 13,000 rpm for 10 min to obtain plasma, which was aspirated and stored at −80°C until analysis.

A short description of a further series: in vitro. As to conditions: rat, pH 7.4.
On the set-up of series [6]: method as in Martin et al., 2011. The note with it: ref Martin et al., 2011, cited from earlier work.
Details of series [7]: method as in Indra et al., 2020. The note with it: ref Indra et al., 2020; cited from earlier work.
[8] abbreviates: inhibition of vandetanib metabolism.
The mark [9] stands for this setting: luteolin 30 mg/kg by gavage 30 min before vandetanib 25 mg/kg by gavage.
Where [10] appears, read: vandetanib 25 mg/kg by gavage alone (control group).
Setting [11] is: luteolin 30 mg/kg + vandetanib 25 mg/kg vs vandetanib alone.
Where [12] appears, read: male, Sprague-Dawley, rat, po, 25 mg/kg, luteolin 30 mg/kg by gavage 30 min before vandetanib 25 mg/kg by gavage.
The mark [13] stands for this setting: male, Sprague-Dawley, rat, po, 25 mg/kg, vandetanib 25 mg/kg by gavage alone (control group).

Read-outs that look alike come from different tables or passages of the source.

Chain of human liver microsomes (HLM) (P08684 2-503): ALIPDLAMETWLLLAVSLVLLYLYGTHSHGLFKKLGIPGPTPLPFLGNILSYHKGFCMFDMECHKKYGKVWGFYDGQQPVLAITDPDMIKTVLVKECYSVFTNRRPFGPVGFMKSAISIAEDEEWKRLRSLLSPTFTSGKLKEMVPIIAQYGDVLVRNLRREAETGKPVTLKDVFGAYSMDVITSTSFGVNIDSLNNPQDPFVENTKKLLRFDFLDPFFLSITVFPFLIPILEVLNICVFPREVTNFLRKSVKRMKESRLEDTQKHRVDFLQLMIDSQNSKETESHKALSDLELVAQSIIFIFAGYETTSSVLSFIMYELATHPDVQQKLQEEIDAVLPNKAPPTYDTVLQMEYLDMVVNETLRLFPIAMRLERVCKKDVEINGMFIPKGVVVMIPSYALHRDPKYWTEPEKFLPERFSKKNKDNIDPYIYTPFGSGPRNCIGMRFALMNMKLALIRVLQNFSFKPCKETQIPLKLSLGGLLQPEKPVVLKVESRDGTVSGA
Chain of vandetanib metabolism (N-demethyl vandetanib formation) in human liver microsomes (P08684 2-503): as above
Procedure for in vitro: as §1, §2, §3

Take `O=c1cc(-c2ccc(O)c(O)c2)oc2cc(O)cc(O)c12` [Luteolin]: the 50% inhibitory concentration (IC50) at 30 min in series [1] stood at 8.56 µM; in series [3], 15.8 µM. In addition, in series [2], the inhibition mechanism result is “mixture of non-competitive inhibition and competitive inhibition”. The compound further showed an inhibition constant Ki in series [2] (setting [8]) of 2.33 µM. Further, the α in series [2] (setting [8]) was found to be 6.68 µM; in series [4], 0.28 µM. Moreover, in series [4], the inhibition type entry is “mixture of non-competitive and un-competitive”.
As for `COc1cc2c(Nc3ccc(Br)cc3F)ncnc2cc1OCC1CCNCC1` [N-demethyl vandetanib], in series [5] (setting [9]), the “AUC(0-t)” value is 998.82 ± 276.65 ng·h/mL, the “AUC(0-∞)” value was 1,118.64 ± 320.66 μg/L*h, the CLz/F amounted to 397.2 ± 108 mL/min/kg and the Cmax was found to be 22.41 ± 5.84 ng/mL. Further, in series [5] (setting [9]), the time to peak (Tmax) is 11.20 ± 1.79 h and the t1/2 was found to be 24.33 ± 5.63 h. In series [5] (setting [10]), the “AUC(0-t)” value came out at 938.88 ± 144.07 ng·h/mL, the “AUC(0-∞)” value is 1,163.14 ± 157.34 μg/L*h, the CLz/F is 363.8 ± 51.7 mL/min/kg and the maximum concentration (Cmax) stood at 19.56 ± 3.03 ng/mL. Moreover, in series [5] (setting [10]), the time to peak (Tmax) was 14.40 ± 5.37 h and the t1/2 was 34.04 ± 15.69 h.
Take `COc1cc2c(Nc3ccc(Br)cc3F)ncnc2cc1OCC1CCN(C)CC1` [Vandetanib]: in “in vitro”, the Km at 30 min is 9.41 µM. Further, in series [6] (combined with itraconazole, a potent CYP3A4 inhibitor), the “levels of vandetanib exposure” value is “increased”. Also, the AUC of vandetanib entry in series [6] (combined with rifampicin, a strong inducer of CYP3A4) was “significantly decreased”. The “increase of AUC(0-t) of vandetanib in luteolin group compared with the control group” value in series [5] (setting [11]) amounted to 18.1%. The “increase of Cmax of vandetanib in luteolin group compared with the control group” value in series [5] (setting [11]) was found to be 32.8%. In addition, the AUC(0-inf) in series [5] (setting [12]) is 41100 ng·h/mL; in series [5] (setting [13]), 36100 ng·h/mL. Further, the half-life in series [5] (setting [12]) was 23 ± 4.02 h; in series [5] (setting [13]), 26.6 ± 4.35 h. The AUC(0-t) in series [5] (male, Sprague-Dawley, rat, po, 25 mg/kg, luteolin 30 mg/kg by gavage 30 min before vandetanib 25 mg/kg by gavage, read-out: AUC(0-t)) was 37100 ng·h/mL; in series [5] (male, Sprague-Dawley, rat, po, 25 mg/kg, vandetanib 25 mg/kg by gavage alone (control group), read-out: AUC(0-t)), 31400 ng·h/mL. Besides, the figures for the CL/F in series [5] (setting [12]) and in series [5] (setting [13]) were 10.2 mL/min/kg and 11.7 mL/min/kg, respectively. For the same compound, the Cmax in series [5] (male, Sprague-Dawley, rat, po, 25 mg/kg, luteolin 30 mg/kg by gavage 30 min before vandetanib 25 mg/kg by gavage, read-out: Cmax) amounted to 1140 ng/mL; in series [5] (male, Sprague-Dawley, rat, po, 25 mg/kg, vandetanib 25 mg/kg by gavage alone (control group), read-out: Cmax), 859 ± 125 ng/mL. Also, the time to peak (Tmax) in series [5] (male, Sprague-Dawley, rat, po, 25 mg/kg, luteolin 30 mg/kg by gavage 30 min before vandetanib 25 mg/kg by gavage, read-out: Tmax) amounted to 7.6 ± 2.61 h; in series [5] (male, Sprague-Dawley, rat, po, 25 mg/kg, vandetanib 25 mg/kg by gavage alone (control group), read-out: Tmax) it was 8.8 ± 3.03 h.
With `COc1cc2c(Nc3ccc(Br)cc3F)ncnc2cc1OCC1CC[N+](C)([O-])CC1` (stereo not shown) [vandetanib N-oxide], the “less activity compared to the original compound (vandetanib)” value in series [7] was “over 50 times”.
